Measured values: patent US5122381A, “Composition and process for dissolving a sparingly water-soluble flavonoid” (San-Ei Chemical Industries, Ltd., priority 1989, dated 1992)

How the values were obtained:
[1] = Dissolution of Rutin: rutin remaining in solution (supernatant, high-speed liquid chromatography); assay type: physicochemical; conditions: 13.5 wt. % of Glycoside I relative to rutin; standing 14 days at room temperature
Method: (§1) Water (100 ml) containing 12 W/V% of granulated sugar and 0.3 W/V% of citric acid was poured into each of five test tubes (100 ml) No. 1 to 5, to which 0.4 ml of rutin (10 W/V%) solution in ethanol (equivalent to 0.04 g of rutin) was added. Immediately thereafter, mixed was a solution of the Glycoside I (13.4 W/V%) in ethanol in amounts of 0.024 ml, 0.032 ml, 0.04 ml and 0.05 ml respectively to the test tubes No. 2 to 5. These amounts were equivalent to 8.0 wt. %, 10.8 wt. %, 13.5 wt. % and 16.0 wt. %, respectively relative to the amount of rutin.
(§2) All of these mixtures including No. 1 to which the Glycoside I had not been added were transparent when observed immediately after mixing. After standing for 24 hours, some mixtures were recognized to have precipitation. Standing was continued for 14 days at room temperature in observing precipitation states of the mixtures. On completion of this standing, rutin concentration of each supernatant liquid of the mixtures was measured using high-speed liquid chromatography.

[2] = Dissolution of Rutin: precipitation observed on standing with Glycoside I; assay type: physicochemical; set-up: key: ++: indicating the greatest degree of precipitation; +: precipitation was observed; -: indicating no observed precipitation; conditions: 0.04 wt % rutin
Method: as §1, §2
The "+" and "-" signs in Table 1 denote comparative amounts of precipitation of the rutin. The range extends from "++", indicating the greatest degree of precipitation, down to "-", indicating no observed precipitation.

C[C@@H]1O[C@@H](OC[C@H]2O[C@@H](Oc3c(-c4ccc(O)c(O)c4)oc4cc(O)cc(O)c4c3=O)[C@H](O)[C@@H](O)[C@@H]2O)[C@H](O)[C@H](O)[C@H]1O [Rutin]
rutin stably dissolved in water [1]: at least 0.04 wt. %
Precipitation Observed ([2]; No. 1, Glycoside I 0 wt % relative to rutin, 1st day): + +
Precipitation Observed ([2]; No. 1, Glycoside I 0 wt % relative to rutin, 3rd day): + +
Precipitation Observed ([2]; No. 1, Glycoside I 0 wt % relative to rutin, 6th day): + +
Precipitation Observed ([2]; No. 1, Glycoside I 0 wt % relative to rutin, 14th day): + +
Precipitation Observed ([2]; No. 2, Glycoside I 8.0 wt % relative to rutin, 1st day): +
Precipitation Observed ([2]; No. 2, Glycoside I 8.0 wt % relative to rutin, 3rd day): +
Precipitation Observed ([2]; No. 2, Glycoside I 8.0 wt % relative to rutin, 6th day): +
Precipitation Observed ([2]; No. 2, Glycoside I 8.0 wt % relative to rutin, 14th day): +
